From US8729082B2, “Substituted imidazoquinoxalines” (Bayer Intellectual Property GmbH, priority 2009, dated 2014)

target: T1, human kinase Mps-1 (Homo sapiens, UniProt P33981); assay: Mps-1 kinase assay (HTRF); type: biochemical; settings: lowATP; mean; read-out: Mps1 lowATP mean IC50
T1 construct: N-terminally GST-tagged human full length recombinant Mps-1 kinase; purchased Invitrogen, Karslruhe, Germany PV4071
T1 sequence (P33981 1-857): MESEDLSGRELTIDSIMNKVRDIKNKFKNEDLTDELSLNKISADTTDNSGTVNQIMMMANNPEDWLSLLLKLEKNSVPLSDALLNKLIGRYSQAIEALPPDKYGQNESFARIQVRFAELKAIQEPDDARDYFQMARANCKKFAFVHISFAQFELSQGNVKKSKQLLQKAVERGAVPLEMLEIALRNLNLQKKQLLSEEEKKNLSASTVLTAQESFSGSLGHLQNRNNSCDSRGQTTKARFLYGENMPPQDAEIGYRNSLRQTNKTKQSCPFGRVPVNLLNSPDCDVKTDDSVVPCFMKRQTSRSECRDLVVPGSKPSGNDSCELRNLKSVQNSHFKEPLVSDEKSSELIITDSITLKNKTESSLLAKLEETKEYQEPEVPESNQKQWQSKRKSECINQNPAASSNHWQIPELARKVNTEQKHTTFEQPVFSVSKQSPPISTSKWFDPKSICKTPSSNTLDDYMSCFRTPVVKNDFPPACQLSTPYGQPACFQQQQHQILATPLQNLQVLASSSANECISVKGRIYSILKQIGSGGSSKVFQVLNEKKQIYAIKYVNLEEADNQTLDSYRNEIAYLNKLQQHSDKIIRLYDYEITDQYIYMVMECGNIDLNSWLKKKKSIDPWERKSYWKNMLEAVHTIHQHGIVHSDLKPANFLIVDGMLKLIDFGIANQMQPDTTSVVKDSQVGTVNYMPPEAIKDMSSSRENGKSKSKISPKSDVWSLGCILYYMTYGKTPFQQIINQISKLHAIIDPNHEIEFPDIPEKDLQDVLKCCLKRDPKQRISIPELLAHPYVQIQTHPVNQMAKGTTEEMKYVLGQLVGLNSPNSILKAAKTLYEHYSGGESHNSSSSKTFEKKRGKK
Procedure, shortened: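 HTRF readout: EDTA-stopped reactions incubated 1 h with europium anti-phospho(Ser/Thr) antibody and streptavidin-XLent, emission ratio 665/620 nm after 350 nm excitation. Kinase step: compound pre-bound 15 min to ~1 nM GST-Mps-1, then 60 min at 22 °C with ATP and biotin-peptide substrate; inhibition scaled between no-inhibitor (0%) and no-enzyme (100%) controls.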

Compound | IC50 [µM]
CCCNc1nc2cc(F)c(F)cc2n2c(-c3ccc(NC(=O)NC)cc3)cnc12 [Example 2-114, 1-{4-[7,8-difluoro-4-(propylamino)imidazo[1,2-a]quinoxalin-1-yl]phenyl}-3-methylurea] | 16
CNC(=O)Nc1ccc(-c2cnc3c(NCCCN4CCCC4=O)nc4cc(F)c(F)cc4n23)cc1 [Example 2-115, 1-[4-(7,8-difluoro-4-{[3-(2-oxopyrrolidin-1-yl)propyl]amino}imidazo[1,2-a]quinoxalin-1-yl)phenyl]-3-methylurea] | 16.1
CCCCNc1nc2cc(F)c(F)cc2n2c(-c3ccc(NC(=O)NC)cc3)cnc12 [Example 2-117, 1-{4-[4-(butylamino)-7,8-difluoroimidazo[1,2-a]quinoxalin-1-yl]phenyl}-3-methylurea] | 19.4
CNC(=O)Nc1ccc(-c2cnc3c(NCCNC(C)=O)nc4cc(F)c(F)cc4n23)cc1 [Example 2-118, N-{2-[(7,8-difluoro-1-{4-[(methylcarbamoyl)amino]phenyl}imidazo[1,2-a]quinoxalin-4-yl)amino]ethyl}acetamide] | 12.7
CNC(=O)Nc1ccc(-c2cnc3c(NCCCn4ccnc4)nc4cc(F)c(F)cc4n23)cc1 [Example 2-119, 1-[4-(7,8-difluoro-4-{[3-(1H-imidazol-1-yl)propyl]amino}imidazo[1,2-a]quinoxalin-1-yl)phenyl]-3-methylurea] | 7.02
CNC(=O)Nc1ccc(-c2cnc3c(NCC4CC4)nc4cc(F)c(F)cc4n23)cc1 [Example 2-120, 1-(4-{4-[(cyclopropylmethyl)amino]-7,8-difluoroimidazo[1,2-a]quinoxalin-1-yl}phenyl)-3-methylurea] | 5.86
CNC(=O)Nc1ccc(-c2cnc3c(NCc4ccccn4)nc4cc(F)c(F)cc4n23)cc1 [Example 2-121, 1-(4-{7,8-difluoro-4-[(pyridin-2-ylmethyl)amino]imidazo[1,2-a]quinoxalin-1-yl}phenyl)-3-methylurea] | 6.7
O=C(NC1CC1)c1ccc(-c2cnc3c(NCCCN4CCCC4=O)nc4cc(F)c(F)cc4n23)cc1Cl [Example 2-125, 2-chloro-N-cyclopropyl-4-(7,8-difluoro-4-{[3-(2-oxopyrrolidin-1-yl)propyl]amino}imidazo[1,2-a]quinoxalin-1-yl)benzamide] | 9.64
O=C(NC1CC1)c1ccc(-c2cnc3c(NCc4ccc(F)cc4)nc4cc(F)c(F)cc4n23)cc1Cl [Example 2-128, 2-chloro-N-cyclopropyl-4-{7,8-difluoro-4-[(4-fluorobenzyl)amino]imidazo[1,2-a]quinoxalin-1-yl}benzamide] | 17.3
CC(=O)NCCNc1nc2cc(F)c(F)cc2n2c(-c3ccc(C(=O)NC4CC4)c(Cl)c3)cnc12 [Example 2-132, 4-(4-{[2-(acetylamino)ethyl]amino}-7,8-difluoroimidazo[1,2-a]quinoxalin-1-yl)-2-chloro-N-cyclopropylbenzamide] | 7.74
O=C(NC1CC1)c1ccc(-c2cnc3c(NCc4ccccn4)nc4cc(F)c(F)cc4n23)cc1Cl [Example 2-134, 2-chloro-N-cyclopropyl-4-{7,8-difluoro-4-[(pyridin-2-ylmethyl)amino]imidazo[1,2-a]quinoxalin-1-yl}benzamide] | 6.7
NC(=O)CCNc1nc2cc(F)c(F)cc2n2c(-c3ccc(C(=O)NC4CC4)c(Cl)c3)cnc12 [Example 2-138, 4-{4-[(3-amino-3-oxopropyl)amino]-7,8-difluoroimidazo[1,2-a]quinoxalin-1-yl}-2-chloro-N-cyclopropylbenzamide] | 11.2

Now those with a lower IC50, led by results:

IC50 [µM] | Compound
0.0796 | Cn1cc(CNc2nc3cc(F)c(F)cc3n3c(-c4ccc(C(=O)NC5CC5)cc4)cnc23)cn1 [Example 2-111, N-cyclopropyl-4-(7,8-difluoro-4-{[(1-methyl-1H-pyrazol-4-yl)methyl]amino}imidazo[1,2-a]quinoxalin-1-yl)benzamide]
0.053 | NS(=O)(=O)CCNc1nc2cc(F)c(F)cc2n2c(-c3ccc(C(=O)NC4CC4)cc3)cnc12 [Example 2-112, N-cyclopropyl-4-{7,8-difluoro-4-[(2-sulfamoylethyl)amino]imidazo[1,2-a]quinoxalin-1-yl}benzamide]
0.197 | O=C(NC1CC1)c1ccc(-c2cnc3c(NCC(O)CO)nc4cc(F)c(F)cc4n23)cc1 (centres unmarked) [Example 2-113, N-cyclopropyl-4-{4-[(2,3-dihydroxypropyl)amino]-7,8-difluoroimidazo[1,2-a]quinoxalin-1-yl}benzamide]
5.34 | CNC(=O)Nc1ccc(-c2cnc3c(NCCCO)nc4cc(F)c(F)cc4n23)cc1 [Example 2-116, 1-(4-{7,8-difluoro-4-[(3-hydroxypropyl)amino]imidazo[1,2-a]quinoxalin-1-yl}phenyl)-3-methylurea]
4.08 | CNC(=O)Nc1ccc(-c2cnc3c(NCc4cccnc4)nc4cc(F)c(F)cc4n23)cc1 [Example 2-122, 1-(4-{7,8-difluoro-4-[(pyridin-3-ylmethyl)amino]imidazo[1,2-a]quinoxalin-1-yl}phenyl)-3-methylurea]
3.55 | CNC(=O)Nc1ccc(-c2cnc3c(NCc4ccncc4)nc4cc(F)c(F)cc4n23)cc1 [Example 2-123, 1-(4-{7,8-difluoro-4-[(pyridin-4-ylmethyl)amino]imidazo[1,2-a]quinoxalin-1-yl}phenyl)-3-methylurea]
0.319 | CCCNc1nc2cc(F)c(F)cc2n2c(-c3ccc(C(=O)NC4CC4)c(Cl)c3)cnc12 [Example 2-124, 2-chloro-N-cyclopropyl-4-[7,8-difluoro-4-(propylamino)imidazo[1,2-a]quinoxalin-1-yl]benzamide]
4.89 | COCCNc1nc2cc(F)c(F)cc2n2c(-c3ccc(C(=O)NC4CC4)c(Cl)c3)cnc12 [Example 2-126, 2-chloro-N-cyclopropyl-4-{7,8-difluoro-4-[(2-methoxyethyl)amino]imidazo[1,2-a]quinoxalin-1-yl}benzamide]
3.81 | O=C(NC1CC1)c1ccc(-c2cnc3c(NCc4ccccc4F)nc4cc(F)c(F)cc4n23)cc1Cl [Example 2-127, 2-chloro-N-cyclopropyl-4-{7,8-difluoro-4-[(2-fluorobenzyl)amino]imidazo[1,2-a]quinoxalin-1-yl}benzamide]
2.26 | O=C(NC1CC1)c1ccc(-c2cnc3c(NCCCCO)nc4cc(F)c(F)cc4n23)cc1Cl [Example 2-129, 2-chloro-N-cyclopropyl-4-{7,8-difluoro-4-[(4-hydroxybutyl)amino]imidazo[1,2-a]quinoxalin-1-yl}benzamide]
3.13 | O=C(NC1CC1)c1ccc(-c2cnc3c(NCCCO)nc4cc(F)c(F)cc4n23)cc1Cl [Example 2-130, 2-chloro-N-cyclopropyl-4-{7,8-difluoro-4-[(3-hydroxypropyl)amino]imidazo[1,2-a]quinoxalin-1-yl}benzamide]
3.73 | CCCCNc1nc2cc(F)c(F)cc2n2c(-c3ccc(C(=O)NC4CC4)c(Cl)c3)cnc12 [Example 2-131, 4-[4-(butylamino)-7,8-difluoroimidazo[1,2-a]quinoxalin-1-yl]-2-chloro-N-cyclopropylbenzamide]
3.29 | O=C(NC1CC1)c1ccc(-c2cnc3c(NCCCn4ccnc4)nc4cc(F)c(F)cc4n23)cc1Cl [Example 2-133, 2-chloro-N-cyclopropyl-4-(7,8-difluoro-4-{[3-(1H-imidazol-1-yl)propyl]amino}imidazo[1,2-a]quinoxalin-1-yl)benzamide]
1.58 | O=C(NC1CC1)c1ccc(-c2cnc3c(NCc4cccnc4)nc4cc(F)c(F)cc4n23)cc1Cl [Example 2-135, 2-chloro-N-cyclopropyl-4-{7,8-difluoro-4-[(pyridin-3-ylmethyl)amino]imidazo[1,2-a]quinoxalin-1-yl}benzamide]
1.71 | O=C(NC1CC1)c1ccc(-c2cnc3c(NCc4ccncc4)nc4cc(F)c(F)cc4n23)cc1Cl [Example 2-136, 2-chloro-N-cyclopropyl-4-{7,8-difluoro-4-[(pyridin-4-ylmethyl)amino]imidazo[1,2-a]quinoxalin-1-yl}benzamide]
0.391 | CC(C)CNc1nc2cc(F)c(F)cc2n2c(-c3ccc(C(=O)NC4CC4)c(Cl)c3)cnc12 [Example 2-137, 2-chloro-N-cyclopropyl-4-{7,8-difluoro-4-[(2-methylpropyl)amino]imidazo[1,2-a]quinoxalin-1-yl}benzamide]
3.85 | COCCCNc1nc2cc(F)c(F)cc2n2c(-c3ccc(C(=O)NC4CC4)c(Cl)c3)cnc12 [Example 2-139, 2-chloro-N-cyclopropyl-4-{7,8-difluoro-4-[(3-methoxypropyl)amino]imidazo[1,2-a]quinoxalin-1-yl}benzamide]
